Test results: PMC4302236, “Functional profile of a novel modulator of serotonin, dopamine, and glutamate neurotransmission” (Psychopharmacology, 2014)

Experiments:
5-HT2C receptor = target: T1, 5-HT2C receptor (Sus scrofa, UniProt K7GSR7); test: 5-HT2C receptor binding in pig choroid plexus (3H-methylsergide)
T1 construct: tissue NovaScreen/Caliper/Perkin-Elmer; host or cells: pig choroid plexus
T1 sequence (K7GSR7 1-457): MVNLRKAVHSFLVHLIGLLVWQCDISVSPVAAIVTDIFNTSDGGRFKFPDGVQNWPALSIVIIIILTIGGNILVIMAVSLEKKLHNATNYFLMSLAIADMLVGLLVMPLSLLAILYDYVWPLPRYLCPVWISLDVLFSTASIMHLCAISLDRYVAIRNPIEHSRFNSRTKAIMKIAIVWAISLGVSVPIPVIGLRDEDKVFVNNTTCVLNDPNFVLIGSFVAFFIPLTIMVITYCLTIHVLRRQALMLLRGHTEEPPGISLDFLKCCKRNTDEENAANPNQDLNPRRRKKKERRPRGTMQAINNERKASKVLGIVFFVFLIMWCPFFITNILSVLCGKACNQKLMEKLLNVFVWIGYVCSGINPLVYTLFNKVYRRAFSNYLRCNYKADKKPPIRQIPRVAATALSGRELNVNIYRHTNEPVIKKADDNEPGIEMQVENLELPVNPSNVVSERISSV
Experimental: (§1) Binding activity at a variety of receptor targets, including recombinant human serotonin receptors and rat dopamine D2 and human recombinant dopamine D4 receptors, was measured in vitro using standard radioligand displacement methods (NovaScreen/Caliper/Perkin-Elmer, Hanover, MD), to determine affinity. […] D2 receptor binding was measured at rat recombinant receptors expressed in Chinese hamster ovary (CHO) cells and using ^3H-methylspiperone as a radioligand and in rat striatum using ^3H-sulpiride as a radioligand. […] D4 receptor binding was measured at human recombinant receptor s expressed in CHO cells and using ^3 H-methylspiperone as a radioligand. D1 receptor binding at human recombinant receptor was measured in CHO cells using ^3H-SCH23390 as a radioligand. 5-HT2C receptor binding was measured in pig choroid plexus using ^3 H-methylsergide as a radioligand. Binding to alpha adrenergic receptors in the rat frontal cortex (alpha1A) or rat liver (alpha1B) was measured using ^3H-prazosin as a radioligand. Histamine H1 receptor binding was measured in bovine cere- bellum using ^3H-pyrilamine as a radioligand. […] The affinity constant (Ki) for each receptor subtype or inhibitory concentration 50 (IC50) for inhibition in functional assays was calculated.

Histamine H1 receptor = target: T2, Histamine H1 receptor (Bos taurus, UniProt P30546); test: Histamine H1 receptor binding in bovine cerebellum (3H-pyrilamine)
T2 construct: tissue NovaScreen/Caliper/Perkin-Elmer; host or cells: bovine cerebellum
T2 sequence (P30546 whole entry): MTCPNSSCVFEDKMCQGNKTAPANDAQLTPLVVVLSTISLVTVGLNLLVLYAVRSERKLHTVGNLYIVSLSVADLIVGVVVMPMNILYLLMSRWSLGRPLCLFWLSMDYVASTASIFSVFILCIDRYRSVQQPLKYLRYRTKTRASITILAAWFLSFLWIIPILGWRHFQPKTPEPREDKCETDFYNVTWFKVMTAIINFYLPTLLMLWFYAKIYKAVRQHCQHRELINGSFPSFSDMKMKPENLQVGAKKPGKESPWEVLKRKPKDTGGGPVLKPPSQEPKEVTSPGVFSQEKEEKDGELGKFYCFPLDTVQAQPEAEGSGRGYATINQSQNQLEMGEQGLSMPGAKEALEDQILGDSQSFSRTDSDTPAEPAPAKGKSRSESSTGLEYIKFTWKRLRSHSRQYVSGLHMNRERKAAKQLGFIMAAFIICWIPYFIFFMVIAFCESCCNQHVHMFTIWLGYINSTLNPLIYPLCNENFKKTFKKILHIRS
Experimental: as §1

[1] = radioligand displacement, unit inferred

CN1CCN2c3c(cccc31)[C@@H]1CN(CCCC(=O)c3ccc(F)cc3)CC[C@@H]12 [ITI-007, 1-(4-fluoro-phenyl)-4-((6bR,10aS)-3-methyl-2,3,6b,9,10,10a-hexahydro-1H,7H-pyrido[3′,4′:4,5]pyrrolo[1,2,3-de]quinoxalin-8-yl)-butan-1-one]
Binding to 5-HT2C receptors (5-HT2C receptor): did not significantly bind
Ki (5-HT2C receptor; [1]): 173 nM
Binding to histamine H1 receptors (Histamine H1 receptor): no significant binding
Ki (Histamine H1 receptor; [1]): > 1000 nM
